We go through two substances from publication PMC4482410, “A Peptide Mimetic of 5-Acetylneuraminic Acid-Galactose Binds with High Avidity to Siglecs and NKG2D” (PLoS ONE, 2015).

Data set [1] concerns the target T1, NKG2D (Homo sapiens, UniProt P26718).
T1 construct: the extracellular lectin-type domain was fused at the N-terminus with a human IgG1 Fc domain; purchased R&D Systems, Inc., Minneapolis, MN
T1 sequence (P26718 73-216 limits assumed): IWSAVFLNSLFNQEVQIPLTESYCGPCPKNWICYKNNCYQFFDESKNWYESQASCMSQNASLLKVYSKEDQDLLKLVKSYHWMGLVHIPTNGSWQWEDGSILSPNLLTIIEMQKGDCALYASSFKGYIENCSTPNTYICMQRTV
As to the kind of experiment: isothermal microcalorimetry. Format: binding. The procedure: (§1) Isothermal microcalorimetry was performed by TA Instruments Professional Services (New Castle, DE) by titrating 10 μM NKG2D (monomer concentration) (R&D Systems, Inc., Minneapolis, MN) with 100 μM svH1C in 50 mM Tris-HCl, pH 7.5, 150 mM NaCl, 0.1 mM EDTA. Recombinant human receptors were obtained from R&D Systems as chimeric proteins. NKG2D is a type II transmembrane protein and the extracellular lectin-type domain was fused at the N-terminus with a human IgG1 Fc domain. Recombinant siglecs contained a C-terminal IgG1 Fc domain or a His6–10 tag. The lyophilized proteins were reconstituted in phosphate-buffered saline, pH 7.2 (PBS), to 100 μg/mL. The Fc-chimeric proteins were bound to protein A/G-coated wells of microtiter plates (Pierce Biotechnology). His-tagged proteins were bound in Nickel-coated plates (Pierce Biotechnology). Sufficient proteins were added to wells to saturate the binding capacity of the wells. […] Absorbance was measured at 450 nm and converted to the amount of streptavidin-peroxidase bound with the specific activity of the conjugate determined under the conditions of the assay. […]
We then assayed binding of svH1C to NKG2D directly by isothermal microcalorimetry. svH1C (100 μM) was titrated into a solution of NKG2D (10 μM, subunit concentration) and changes in heat content of the system were measured. […]

The target of data set [2] is T1, NKG2D. As to the kind of experiment: inhibition of binding of svH1C to NKG2D. Conditions: estimated from fetuin inhibition (Fig 4); read-out: binding constant of svH1C to NKG2D estimated by inhibition of binding by fetuin. The procedure:
as §1, with “wells. After a wash to remove unbound receptor, wells were blocked with 1% gelatin in wash buffer.” for “wells.”
Fig 4 Binding of svH1C to NKG2D. (A) The amount of bound peptide was measured after extensive washing with PBS containing 0.05% Tween-20. […]

Data set [3] is described as follows: toxicity in vivo. Conditions: statement for svH1C or similar glycan mimetics; no data shown.
The subject of data set [4] is siglecs. The data set can be described thus: solid-phase binding of biotinylated tetravalent peptides to siglecs. Also on record: species or system human. Conditions: biotinylated peptides 2 μM. The procedure: as §1, with “wells. After a wash to remove unbound receptor, wells were blocked with 1% gelatin in wash buffer. Wash buffers were either 10 mM phosphate, pH 7.2; 10 mM HEPES, pH 7.4; or 50 mM Tris-HCl, pH.7.5, each in 150 mM NaCl containing 0.05% Tween-20. Biotinylated peptides were prepared as 2 μM solutions in the wash buffer and 50 μL (100 pmoles) were added to each well and incubated at room temperature for one hour. After four washes with 350 μL buffer containing 0.05% Tween-20, each assay was incubated with 50 μL of 1 μg/mL streptavidin-peroxidase (Sigma-Aldrich, St. Louis, MO).” for “wells.”
MAA is a mixture of M. amurensis leukoagglutinin (MAL) and M. amurensis hemagglutinin (MAH), both of which along with SNA1 bind preferentially to terminal Neu5Ac-Gal- sequences on complex glycans. Binding of the peptide to several lectins specific for monosaccharides was not detected. […]

Data set [5] has as its system lectins specific for di- or tri-saccharides that terminate with Neu5Ac-Gal. Conditions: ref [29],[30]; cited from earlier work. The source says: We initially identified several sequences of amino acids that bound to specific plant lectins by screening phage display libraries. Sequences were further refined by in silico modeling of docking of a peptide into the sugar binding site of the crystal structures of lectins. These studies predicted that several short peptide sequences, 5 to 8 amino acids in length, would have significant affinity to lectins chosen as analogs of cell-surface receptors. The sequences identified by this approach were incorporated into tetravalent structures, a design based on the concept of avidity as a fun ...

The subject of data set [6] is lectins that bind monosaccharides. Conditions: ref [29],[30]; cited from earlier work. The source says:
We initially identified several sequences of amino acids that bound to specific plant lectins by screening phage display libraries. Sequences were further refined by in silico modeling of docking of a peptide into the sugar binding site of the crystal structures of lectins. These studies predicted that several short peptide sequences, 5 to 8 amino acids in length, would have significant affinity to lectins chosen as analogs of cell-surface receptors. […] MAA is a mixture of M. amurensis leukoagglutinin (MAL) and M. amurensis hemagglutinin (MAH), both of which along with SNA1 bind preferentially to terminal Neu5Ac-Gal- sequences on complex glycans. Binding of the peptide to several lectins specific for monosaccharides was not detected. We then assayed binding of svH1C to several siglecs, which comprise a family of cell-surface receptors that are specific for Neu5Ac-Gal/GalNAc- sequ ...

pKd: −log10 of the molar value. Several values for one entry are separate records, joined by “and”; a condition that tells them apart may be missing. Identical values can stand only once. Bridges are numbered along the chain shown (N, C = ends). Roman numbers before positions name the chains, in order. Where no end group is shown, it is not given here.

On to “I: NPSHPLSGGGGSKK-NH2 / II: NPSHPLSGGGGSK / III: NPSHPLSGGGGS / IV: NPSHPLSGGGGS (amide I:13-IV:C, I:14-II:C, II:13-III:C) [svH1C, [(NPSHPLSGGGGS)2K]2K-NH2]”, for which the pKd in data set [1] (100 μM svH1C titrated into 10 μM NKG2D (subunit concentration), 50 mM Tris-HCl, pH 7.5, 150 mM NaCl, 0.1 mM EDTA, read-out: KD) was 6.24 and 6.22; in data set [1] (abstract, range for siglecs and NKG2D together, read-out: KD, NKG2D (abstract range)), 6.00 to 6.22; in data set [2], around 6.00. For the same substance, the toxicity in vivo entry in data set [3] is reported as “non-toxic in vivo”.
With “NPSHPSLG (also: tetravalent, biotinylated) [svH1D]”, the “binding of biotinylated tetravalent peptides to siglecs” value in data set [4] is “also bound to siglecs”. In data set [5], the “binding to lectins specific for di- or tri-saccharides that terminate with Neu5Ac-Gal” value is “bound strongly”. Besides, in data set [6], the “binding to lectins specific for monosaccharides” value is on record as “did not bind”.
